# Experimental data published in patent US20240100062A1, “Methods of Treatment With an Iboga Alkaloid” (priority 2022, published 2024).
# What was measured:
# [1] = system: special operations veterans; assay: Hopkins Verbal Learning Test-Revised (HVLT-R), Example 1 study; format: in vivo, human
# [2] = system: special operations veterans; assay: Brief Visuospatial Memory Test-Revised (BVMT-R), Example 1 study; format: in vivo, human
# [3] = system: special operations veterans; assay: Delis-Kaplan Executive Function System (D-KEFS), Example 1 study; format: in vivo, human
# [4] = system: special operations veterans; assay: MADRS depression rating scale, Example 1 study; format: in vivo, human; settings: for MADRS score, mean: p(FDR) <0.001
# Protocol: With subjects in the fasting state, an intravenous infusion of 1 gram of magnesium sulfate was administered 1-2 hours prior to treatment. […] Medical staff (MD, RN, or EMT) were onsite at a ratio of at least 1 staff per 2 patients throughout treatment for monitoring and management, but no specific coaching or psychological support was provided during treatment.
# Post treatment, each subject was assessed four days after treatment, one month after treatment, and, if willing, one year after treatment. The post-treatment assessments conducted at four days and at one month after treatment included neuropsychological testing, measures of PTSD, depression, anxiety, mystical experiences, functional imaging and EEG. Post-treatment assessments conducted at one year after treatment included PTSD, depression, and anxiety measures.
# (§1) Clinician administered scales included CAPS-5 (Clinician-administered PTSD Scale for DSM-5), which is a gold standard assessment of PTSD symptom severity; MADRS (Montgomery-Asberg Depression Rating Scale), a measure for depressive symptom severity; and Hamilton-Anxiety Rating Scale (HAM-A) (Shear, M. K. et al., Depress. Anxiety 13, 166-178 (2001)) a measure for anxiety symptom severity; SCID-5 (Structured Clinical Interview for DSM-5) Overview for a historical and environmental context of symptom presentation; MINI DSM-5 (Mini International Neuropsychiatric Interview from DSM-5) for a structured psychodiagnostics assessment; BAT-L (Boston Assessment of TBI—Lifetime) for a lifetime history of TBI and blast exposure; and Ohio State University TBI Identification Method (Short Form) for a lifetime history of TBI. MADRS testing provides an indication of depressive symptoms, CAPS-5 provides an indication of PTSD and SIGH-A provides an indication of anxiety. Collectively these overlap to provide indication of mood, concentration, sleep and tension.
# The MADRS is a clinician—administered 10-item scale assessing the severity of depression symptoms. Items are rated on a scale of 0 (no abnormality) to 6 (severe) (Montgomery, S. A. et al., Br. J. Psychiatry J. Ment. Sci. 134, 382-389 (1979)). A total score of 0-6 indicates no depression, 7-19 mild depression, 20-34 moderate depression, 35-59 severe depression, […] (Miller, M. J., J. Affect. Disord. 77, 255-260 (2003)).
# [5] = system: special operations veterans; assay: Predicted brain age from MRI (brain age model); format: in vivo, human
# Excerpt: A predictive model of normal aging defined using machine learning in healthy individuals, based on magnetic resonance imaging-derived estimates of gray matter and white matter (Id.) was applied to the MRI images from the subjects enrolled in the study of Example 1. […] There was a significant reversal of brain age from baseline to one month after treatment. The mean decrease in brain age was 1.3 years (corrected p=0.03).
# At baseline, the brain age estimate for the 24 subjects was 40.89 years. […] The average decrease in brain age from baseline one month after treatment was 1.4 years.
# [6] = system: male veterans with a history of TBI; assay: Pseudo-continuous arterial spin labeling MRI, cerebral blood flow (Example 3); format: in vivo, human; settings: paired t-test across baseline, first post-treatment scan and 1 month post-treatment; p<0.001
# Protocol: Arterial spin labeling (ASL) MR was used to measure cerebral blood flow in some of the subjects of the subjects enrolled in the study of Example 1. As described in Example 3, pseudo-continuous ASL (pcASL) was performed on the subject at baseline, about 1 week after treatment, and one-month after treatment. […] A first metric of interest was change in net quantity (mL/100 g tissue/min) of blood entering different regions of the brain. Images of the left posterior orbital gyrus, left anterior insula, left and right cerebral white matter at baseline and 1-week post treatment (images not shown) were analyzed and compared. […] A paired t-test across 3 time points—baseline (pre-treatment), 1 week post-treatment, and 1 month post-treatment—was employed.
# A second metric of interest was regression between change in clinical scores versus change in relative cerebral blood perfusion from baseline to one-month post treatment. Multiple regression with clinical scores at baseline and one-month post treatment was used. […]
# A first metric of interest was change in net quantity (mL/100 g tissue/min) of blood entering different regions of the brain. Images of the left posterior orbital gyrus, left anterior insula, left and right cerebral white matter at baseline and 1-2 days post treatment (images not shown) were analyzed and compared. […]
# [7] = system: special operations veterans; assay: Resting-state fMRI functional connectivity (Example 2); format: in vivo, human; settings: within a few days after treatment; persisted to one-month post treatment; 5000 pairs tested
# Excerpt: The human brain is a series of well-organized and optimized series of efficient networks. Disease states can be characterized as abnormalities or inefficiencies in the networks and/or the global organization. Resting-state functional connectivity is one method to characterize disease states and effects of interventions. The functional connectivity networks evaluated in a region of interest in the brain included those identified in Table 2-1 of Example 2.
# The subjects were asked to clear their mind of any particular thoughts in order to capture the brain at rest or in its ‘default’ state. An a priori region of interest was determined for analysis and 5000 functional connectivity pairs were tested. The underlying alteration in brain patterns (connectivity) due to an intervention was evaluated.
# [8] = system: special operations veterans; assay: Clinician rated psychiatric assessments (PTSD, depression, anxiety) overall, Example 1 study; format: in vivo, human; settings: following treatment; sustained at one-month follow-up
# Protocol: The safety and efficacy of ibogaine treatment in combination with a cardioprotective agent was evaluated in subjects with a history of TBI. At baseline, study participants were experiencing clinically significant levels of disability, PTSD, depression, and anxiety. […] Indeed, disability measures continued to improve, and psychiatric symptom remission and response rates one-month post-treatment remained high.
# as §1, with “Collectively these overlap to provide indication of mood, concentration, sleep and tension.” left out
# cortical neuron = settings: in vitro; cited from earlier work
# humans = settings: in vivo; cited from earlier work
smiles,measurement,setting,value
"CCC1CC2CC3c4[nH]c5ccc(OC)cc5c4CCN(C2)C13 (stereo not shown) [ibogaine, Ibogaine]","Verbal Memory (HVLT-R), mean ± SD","[1]; 1-wk post, baseline 47.4 ± 10.1, p(FDR) 0.583",49.0 ± 9.2 T score
same,"Verbal Memory (HVLT-R), D",[1]; baseline vs 1-month post,0.47
same,"Verbal Memory (HVLT-R), D",[1]; baseline vs 1-wk post,0.17
same,Verbal memory improvement,[1]; one-month follow-up,significant improvement
same,"Visuospatial Memory (BVMT-R), D",[2]; baseline vs 1-month post,0.32
same,"Visuospatial Memory (BVMT-R), D",[2]; baseline vs 1-wk post,0.50
same,Visual memory improvement,[2]; both timepoints,significant improvement in visual memory at both timepoints
same,"Phonemic Fluency (D-KEFS Verbal Fluency), mean ± SD","[3]; 1-mo. post, baseline 57.0 ± 11.7, p(FDR) <0.001",64.0 ± 10.1 T score
same,"Cognitive Flexibility Composite, D",[3]; baseline vs 1-month post,0.74
same,"Cognitive Inhibition (D-KEFS Color/Word Interference, Condition 3), D",[3]; baseline vs 1-month post,0.62
same,"Phonemic Fluency (D-KEFS Verbal Fluency), D",[3]; baseline vs 1-month post,1.11
same,"Problem Solving (D-KEFS TT, Total Achievement Score), D",[3]; baseline vs 1-month post,0.44
same,"Semantic Fluency (D-KEFS Verbal Fluency), D",[3]; baseline vs 1-month post,0.24
same,"Cognitive Flexibility Composite, D",[3]; baseline vs 1-wk post,0.43
same,"Phonemic Fluency (D-KEFS Verbal Fluency), D",[3]; baseline vs 1-wk post,0.52
same,"Problem Solving (D-KEFS TT, Total Achievement Score), D",[3]; baseline vs 1-wk post,0.49
same,"Semantic Fluency (D-KEFS Verbal Fluency), D",[3]; baseline vs 1-wk post,0.02
same,Language (semantic fluency) performance change,[3]; post treatment time points,No significant performance changes
same,"MADRS score, mean","[4]; 1-mo. post, SD 5.9, baseline 25.2 ± 8.7, N 28, only participants with mild TBI",3.6
same,"MADRS score, mean","[4]; 1-mo. post, SD 7.7, baseline 31.3 ± 6.5, N 15, only participants meeting diagnostic criteria per MINI at baseline",6.4
same,"MADRS % Reduction vs Baseline, mean","[4]; 1-mo. post, SD 17%, only participants with mild TBI",87% ±
same,"MADRS % Reduction vs Baseline, mean","[4]; 1-mo. post, SD 21%, only participants meeting diagnostic criteria per MINI",81% ±
same,"MADRS score, mean","[4]; 1-wk post, SD 3.6, baseline 31.3 ± 6.5, N 15, only participants meeting diagnostic criteria per MINI at baseline",3.6
same,"MADRS score, mean","[4]; 1-wk. post, SD 3.2, baseline 25.2 ± 8.7, N 28, only participants with mild TBI",2.7
same,"MADRS % Reduction vs Baseline, mean","[4]; 1-wk. post, SD 11%, only participants meeting diagnostic criteria per MINI",89% ±
same,"MADRS % Reduction vs Baseline, mean","[4]; 1-wk. post, SD 24%, only participants with mild TBI",87% ±
same,"MADRS, D","[4]; Baseline vs 1-mo. post, only participants with mild TBI",2.70
same,Mean decrease in brain age,"[5]; baseline to one month after treatment, corrected p=0.03 (FIG. 9A)",1.3 years
same,Estimated brain age compared to accelerated intermittent theta burst stimulation (aiTBS),[5]; one-month post treatment (FIG. 9D),provided a reducing in estimated brain age one-month post treatment compared to aiTBS
same,"Brain age contrast Estimate, Baseline & 1 wk. vs 1 mo.","[5]; weights .5-.5-1, Sig 0.008, 95% 0.352 to 2.087",1.220 years
same,Change in absolute cerebral blood flow,[6],No significant changes
same,"Reorganization of functional connection pairs in the brain networks, number of pairs",[7],22
same,Cohen's D on clinician rated psychiatric assessments,[8],> 2
same,Cortical neuron dendritic arbor complexity,cortical neuron,increases cortical neuron dendritic arbor complexity
same,Incidence of cardiac arrest in people treated,humans,Approximately 1 in 300 people
same,Neurotoxicity reported in humans,humans,only transient ataxia has been reported in humans
same,QT interval prolongation,humans,instances of subsequent fatal arrhythmia
